Results taken from US20260042764A1, “COMPOSITIONS AND METHODS FOR INHIBITION OF KRAS” (TheRas, Inc., priority 2022, published 2026).

Legend:
[1] = biological target: T1, Avi-KRAS G12D (1-169) GppNHp/RAF1 RBD-3xFLAG (52-151) (Homo sapiens, UniProt P01116, G12D); assay: Raf1-KRAS G12D-GppNHP disruption HTRF assay (Biological Example 1); assay type: binding
T1 construct: Avi-KRAS G12D (1-169)
Method in brief: (§1)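 Compound disruption of KRAS-GppNHp/RAF1 RBD binding read by HTRF after two sequential 1 h room-temperature incubations (protein mix, then detection reagents), shaken at 700 rpm. Buffer Tris pH 7.5 with MgCl2, BSA, Tween and 10% DMSO; results given as percent activity relative to DMSO (100%).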

[2] = biological target: T2, Avi-KRAS G12R (1-169) GppNHp/RAF1 RBD-3xFLAG (52-151) (Homo sapiens, UniProt P01116, G12R); assay: Raf1-KRAS G12R-GppNHP disruption HTRF assay (Biological Example 1); assay type: binding
T2 construct: Avi-KRAS G12R (1-169)
T2 sequence (P01116 1-169 isoform P01116-2 G12R): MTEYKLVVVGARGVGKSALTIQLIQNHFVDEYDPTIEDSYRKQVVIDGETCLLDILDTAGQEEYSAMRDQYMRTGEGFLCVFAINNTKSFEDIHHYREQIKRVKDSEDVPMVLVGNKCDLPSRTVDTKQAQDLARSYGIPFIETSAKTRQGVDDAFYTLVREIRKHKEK
Method in brief: as §1

[3] = biological target: T3, Avi-KRAS G12V (1-169) GppNHp/RAF1 RBD-3xFLAG (52-151) (Homo sapiens, UniProt P01116, G12V); assay: Raf1-KRAS G12V-GppNHP disruption HTRF assay (Biological Example 1); assay type: binding
T3 construct: Avi-KRAS G12V (1-169)
T3 sequence (P01116 1-169 isoform P01116-2 G12V): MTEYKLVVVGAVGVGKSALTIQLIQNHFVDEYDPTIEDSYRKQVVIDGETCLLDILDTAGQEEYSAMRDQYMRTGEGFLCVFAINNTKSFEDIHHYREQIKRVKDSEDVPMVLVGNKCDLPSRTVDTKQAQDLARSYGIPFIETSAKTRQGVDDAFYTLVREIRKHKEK
Method in brief: as §1

[4] = biological target: T4, Avi-KRAS WT (1-169) GppNHp/RAF1 RBD-3xFLAG (52-151) (Homo sapiens, UniProt P01116); assay: Raf1-KRAS WT-GppNHP disruption HTRF assay (Biological Example 1); assay type: binding
T4 construct: Avi-KRAS WT (1-169)
T4 sequence (P01116 1-169 isoform P01116-2): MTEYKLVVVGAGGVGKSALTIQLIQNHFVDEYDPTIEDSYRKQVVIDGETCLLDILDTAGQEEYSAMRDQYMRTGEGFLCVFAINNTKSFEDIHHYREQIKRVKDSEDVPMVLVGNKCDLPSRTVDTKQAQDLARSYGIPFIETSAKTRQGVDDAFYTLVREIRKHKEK
Method in brief: as §1

[5] = tested on: GP2d cells (KRAS G12D); assay: Cell-based pERK HTRF assay in GP2d cell (Biological Example 2); conditions: GP2d (KRAS G12D) cells, pERK HTRF
Method in brief: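 Cells grown in DMEM with 10% FBS were exposed to compound for 60 min at 0.25% DMSO, using a 9-point half-log series starting at 1 μM or 100 nM. Lysates were then mixed with d2 and Eu cryptate antibodies for 4–24 h at room temperature, and pERK was read by HTRF.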

[6] = tested on: SW620 cells (KRAS G12V); assay: Cell-based pERK HTRF assay in SW620 cell (Biological Example 4); conditions: pERK HTRF
Method in brief: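 SW620 seeded in RPMI/10% FBS, next day dosed 4 h (top 1 μM, half-log, 9 pts, 0.25% DMSO). Lysed, pERK by d2/Eu cryptate HTRF, 4–24 h RT, 615 nm read.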

[7] = Homo sapiens, SW-620, SW620 (KRAS G12V) cells
[8] = KRAS G12D, GppNHp-loaded, class symbols
[9] = KRAS G12R, GppNHp-loaded, class symbols
[10] = KRAS G12V, GppNHp-loaded, class symbols
[11] = KRAS WT, GppNHp-loaded, class symbols
[12] = Homo sapiens, SW-620, SW620 (KRAS G12V) cells, class symbols

T1 sequence (P01116 1-169 isoform P01116-2 G12D): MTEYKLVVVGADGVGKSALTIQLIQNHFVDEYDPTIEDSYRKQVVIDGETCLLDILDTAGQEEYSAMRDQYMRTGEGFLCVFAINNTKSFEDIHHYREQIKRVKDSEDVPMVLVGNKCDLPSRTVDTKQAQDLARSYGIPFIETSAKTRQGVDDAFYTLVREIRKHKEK

IC50 ([1]; KRAS G12D-GppNHp/RAF1 RBD HTRF) [nM] | IC50 ([2]; KRAS G12R-GppNHp/RAF1 RBD HTRF) [nM] | IC50 ([3]; KRAS G12V-GppNHp/RAF1 RBD HTRF) [nM] | IC50 ([4]; KRAS WT-GppNHp/RAF1 RBD HTRF) [nM] | IC50 ([5]; GP2d) [nM] | IC50 [6, 7] [nM] | IC50 [1, 8] [nM] | IC50 [2, 9] [nM] | IC50 [3, 10] [nM] | IC50 [4, 11] [nM] | IC50 ([5]; GP2d, class symbols) [nM] | IC50 [6, 12] [nM] | IC50 [5] [nM] | IC50 ([6]; SW620 (KRAS G12V) cells) [nM] | Compound
100 to 1000 | 100 to 1000 | 100 to 1000 | 100 to 1000 | < 100 | < 100 |  |  |  |  |  |  |  |  | CCN(c1nc(OC[C@@]23CCCN2C[C@H](F)C3)nc2c(F)c(-c3ccc(F)c4sc(N)c(C#N)c34)c(C(F)(F)F)cc12)[C@H]1CC(=O)N(C)C1 [Compound 482]
 |  |  |  |  |  | < 100 | < 100 | < 100 | < 100 | < 100 | < 100 |  |  | CCN(c1nc(OC[C@@]23CCCN2C[C@H](F)C3)nc2c(F)c(-c3ccc(F)c4sc(N)c(C#N)c34)c(C(F)(F)F)cc12)[C@H]1C[C@H]2CCOC(=O)N2C1 (atropisomer, axis not shown) [Compound 664]
 |  |  |  |  |  | 1000 to 10000 | 1000 to 10000 | 1000 to 10000 | 1000 to 10000 | < 100 | 100 to 1000 |  |  | CCC(=O)N1CC[C@H]2[C@@H]1CN2c1nc(OC[C@@]23CCCN2C[C@H](F)C3)nc2c(F)c(-c3ccc(F)c4sc(N)c(C#N)c34)c(C(F)(F)F)cc12 (atropisomer, axis not shown) [Compound 642]
100 to 1000 | 100 to 1000 | 100 to 1000 | 100 to 1000 | < 100 | < 100 |  |  |  |  |  |  |  |  | CCN(c1nc(OC[C@@]23CCCN2C[C@H](F)C3)nc2c(F)c(-c3ccc(F)c4sc(N)c(C#N)c34)c(C(F)(F)F)cc12)[C@@H]1CN(C(=O)C(C)C)C[C@@H]1F [Compound 475]
 |  |  |  |  |  | 100 to 1000 | 100 to 1000 | 100 to 1000 | < 100 | < 100 | < 100 |  |  | CCN(c1nc(OC[C@@]23CCCN2C[C@H](F)C3)nc2c(F)c(-c3ccc(F)c4sc(N)c(C#N)c34)c(C(F)(F)F)cc12)[C@@H]1C[C@@H](C)N(C(=O)COC)C1 (atropisomer, axis not shown) [Compound 597]
< 100 | < 100 | 100 to 1000 | < 100 | < 100 | < 100 |  |  |  |  |  |  |  |  | CCN(c1nc(OC[C@@]23CCCN2C[C@H](F)C3)nc2c(F)c(-c3ccc(F)c4sc(N)c(C#N)c34)c(C(F)(F)F)cc12)[C@H]1CCN(C(=O)C2CC(F)(F)C2)C1 (atropisomer, axis not shown) [Compound 550]
 |  |  |  |  |  | < 100 | < 100 | < 100 | < 100 | < 100 | < 100 |  |  | [2H]C([2H])([2H])OC(=O)N1CC[C@H](N(CC)c2nc(OC[C@@]34CCCN3C[C@H](F)C4)nc3c(F)c(-c4ccc(F)c5sc(N)c(C#N)c45)c(C(F)(F)F)cc23)C1 (atropisomer, axis not shown) [Compound 659]
 |  |  |  |  |  | < 100 | < 100 | < 100 | < 100 | < 100 | < 100 |  |  | CCN(c1nc(OCC23CCCN2CC(F)C3)nc2c(F)c(-c3ccc(F)c4sc(N)c(C#N)c34)c(C(F)(F)F)cc12)C1CCN(C(=O)c2oncc2C)C1 (stereo not drawn) [Compound 804]
 |  |  |  |  |  | 100 to 1000 | 100 to 1000 | 100 to 1000 | 100 to 1000 | < 100 | < 100 |  |  | CCN(c1nc(OC[C@@]23CCCN2C[C@H](F)C3)nc2c(F)c(-c3ccc(F)c4sc(N)c(C#N)c34)c(C(F)(F)F)cc12)[C@H]1C[C@H](C)N(C(=O)[C@@H](C)OC)C1 (atropisomer, axis not shown) [Compound 747]
100 to 1000 | 100 to 1000 | 1000 to 10000 | 100 to 1000 | < 100 | < 100 |  |  |  |  |  |  |  |  | C[C@H]1CS(=O)(=O)CCN1c1nc(OC[C@@]23CCCN2C[C@H](F)C3)nc2c(F)c(-c3ccc(F)c4sc(N)c(C#N)c34)c(C(F)(F)F)cc12 [Compound 302]
100 to 1000 | 1000 to 10000 | 1000 to 10000 | 100 to 1000 |  |  |  |  |  |  |  |  | < 100 | < 100 | CCC(=O)N1CC(N(C)c2nc(OCC34CCCN3CC(F)C4)nc3c(F)c(-c4ccc(F)c5sc(N)c(C#N)c45)c(C(F)(F)F)cc23)CC1C (stereo not drawn) [Compound 444]
